Target: T1, pepsin or simulated human gastric fluid (SGF) (Sus scrofa, UniProt P00791)
T1 construct: purchased Sigma P6887
Experiment: not given
Format: biochemical
Conditions: not given

T1 sequence (P00791 60-385): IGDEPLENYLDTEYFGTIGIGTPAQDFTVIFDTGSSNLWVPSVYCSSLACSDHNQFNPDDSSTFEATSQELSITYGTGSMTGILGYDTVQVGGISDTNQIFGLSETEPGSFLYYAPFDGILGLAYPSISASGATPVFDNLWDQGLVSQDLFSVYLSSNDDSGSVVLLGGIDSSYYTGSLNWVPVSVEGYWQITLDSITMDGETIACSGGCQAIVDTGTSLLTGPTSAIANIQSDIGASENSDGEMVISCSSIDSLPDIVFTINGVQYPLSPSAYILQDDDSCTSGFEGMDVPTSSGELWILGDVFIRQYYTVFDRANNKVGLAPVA

| Substance | % of Max Slope [%] | % of Max Slope, Y [%] | SGF cleavage (in words) | cleavability by human gastrointestinal proteases |
| --- | --- | --- | --- | --- |
| VIF | 78 | – | – | – |
| LYY | 100 | – | – | – |
| AFF | 63 | – | – | – |
| LFV | 65 | – | – | – |
| EFF | 66 | – | – | – |
| VLF | 78 | – | – | – |
| LYA | 65 | – | – | – |
| VFF | 63 | – | – | – |
| AIF | 78 | – | – | – |
| LRLFVGS (cleavable linker) | – | 75 | – | – |
| ALY | 78 | – | – | – |
| FYA | 84 | – | – | – |
| EYF | 66 | – | – | – |
| DYF | 66 | – | – | – |
| IFVRLR (cleavable linker) | – | – | rapid | – |
| FYL | 78 | – | – | – |
| IIF | 63 | – | – | – |
| AYF | 63 | – | – | – |
| VYF | 63 | – | – | – |
| LIF | 63 | – | – | – |
| EFY | 66 | – | – | – |
| LLF | 63 | – | – | – |
| FFL | 78 | – | – | – |
| FYV | 84 | – | – | – |
| YFI | 78 | – | – | – |
| AAPF [reference compound] | – | – | – | neither FRET nor protein showed any cleavability |
| YFA | 84 | – | – | – |

| Substance | % of Max Slope [%] | % of Max Slope, Y [%] | SGF cleavage (in words) | cleavability by human gastrointestinal proteases |
| --- | --- | --- | --- | --- |
| IFA | 65 | – | – | – |
| FFA | 84 | – | – | – |
| YFV | 84 | – | – | – |
| LIY | 63 | – | – | – |
| DFY | 66 | – | – | – |
| LYF | 100 | – | – | – |
| YFL | 78 | – | – | – |
| YYL | 78 | – | – | – |
| FFV | 84 | – | – | – |
| FYI | 78 | – | – | – |
| ALKLFVGS (cleavable linker) | – | 88 | – | – |
| AFY | 63 | – | – | – |
| LYV | 65 | – | – | – |
| IFVALKGS (cleavable linker) | – | 88 | – | – |
| VFY | 63 | – | – | – |
| LKLFVGS (cleavable linker) | – | 67 | – | – |
| DFF | 66 | – | – | – |
| LFA | 65 | – | – | – |
| VLY | 78 | – | – | – |
| LFVRLRGS (cleavable linker) | – | 74 | – | – |
| ILF | 63 | – | – | – |
| ALKLFV (cleavable linker) | – | – | rapid | – |
| FFI | 78 | – | – | – |
| LFVALKGS (cleavable linker) | – | 76 | – | – |
| ILY | 63 | – | – | – |
| IFV | 65 | – | – | – |
| ALF | 78 | – | – | – |

System: gut enzymes of Corn Earworm
Experiment: FRET peptide cleavage by lepidopteran gut enzymes (LEP)
Format: biochemical, Helicoverpa zea
Conditions: LEP (X); pooled FRET screening Round 1; slope of fluorescence over 10 minutes, steepest slope = 100%; representative cleavable sequences
Source text: Corn Earworm insects were obtained commercially from Benzon Research (Carlisle, Pa.) as eggs. Hatched larvae were raised on artificial diet until ⅘^th instar (20 mm long) before guts were isolated. Before gut extract, larvae were anesthetized using CO2. The larva was then pinned on the dissection plate at both the head and the tail. Using dissection scissors, the cuticle was nicked. The dissection scissors were then inserted into the nick and the […] along the insect. The cuticle was then carefully pulled back and pinned open to reveal the digestive track. Using DI water, the insect was thoroughly rinsed to remove hemolymph. The gut was then excised with tweezers and placed in a solution of 500 μL of 200 mM Tris-HCl pH 8.1 150 mM NaCl (assay buffer). The tube was pre-weighed and post-weighed to calculate the total amount of gut added. CEW gut was diluted to a stock concentration of 7 mg/ml (10×) in 200 mM Tris-HCl pH 8.1 150 mM NaCl. This was diluted fresh each plate by 20× with the assay buffer.

| Substance | % of Max Slope [%] |
| --- | --- |
| RKY | 92 |
| PKK | 100 |
| KKS | 93 |
| PRK | 100 |
| ARY | 93 |
| VKY | 93 |
| KRT | 93 |
| VRT | 90 |
| VKF | 93 |
| AKS | 90 |
| LTR | 89 |
| KTR | 90 |
| ARS | 90 |
| VRY | 93 |
| RSR | 90 |
| KTK | 90 |
| RRY | 92 |
| PRR | 100 |
| RTR | 90 |
| ISR | 89 |
| PKR | 100 |
| KSR | 90 |
| AKT | 90 |
| ARF | 93 |
| KRF | 92 |

| Substance | % of Max Slope [%] |
| --- | --- |
| RTK | 90 |
| VRS | 90 |
| KKF | 92 |
| RSK | 90 |
| KKY | 92 |
| RKT | 93 |
| ITR | 89 |
| LSK | 89 |
| AKY | 93 |
| VKS | 90 |
| ART | 90 |
| RKF | 92 |
| VRF | 93 |
| RKS | 93 |
| KRS | 93 |
| RRS | 93 |
| AKF | 93 |
| VKT | 90 |
| KSK | 90 |
| KRY | 92 |
| RRT | 93 |
| ISK | 89 |
| RRF | 92 |
| KKT | 93 |
| ITK | 89 |

Same assay, conditions: LEP (X); pooled FRET screening; failed cleavable sequences

| Substance | % of Max Slope [%] |
| --- | --- |
| PKK | 0 |
| PRK | 0 |
| VRY | 0 |
| PRR | 0 |
| PKR | 0 |

Same assay, conditions: insect (LEP) simulated gut environment

| Substance | LEP cleavage (in words) |
| --- | --- |
| IFVRLR (cleavable linker) | rapid |
| ALKLFV (cleavable linker) | rapid |

System: insect and/or nematode protease (X condition)
Experiment: Round 2 and spacer FRET cleavage, X (insect) cleavage condition
Format: biochemical
Conditions: Round 2 FRET, X-Y combinations
Protocol: Round 2 data from FRET molecules that represented a subset of binary combinations based on the observed top hits in Round 1 provided a hierarchical ranking of the various binary combinations. Round 2 FRET molecules were synthesized, resuspended, and tested in cleavage enzyme assays as described above in Round 1. Many combinations of binary cleavable linking peptides were tested against LEP, COLEOP and SGF conditions.
Data from the Round 2 FRET that exemplifies the combination of both X and Y cleavability in a binary or tertiary peptide are presented in Table 6.
To screen for potential spacers, FRET peptides were ordered as the binary peptide ALKLFVZ1Z2 and varied amino acids in positions Z1 and Z2. Some of the amino acids were screened as individuals and some were screened as pools. The peptides were re-suspended using 50% acetonitrile in water at a concentration of 2 μM of each peptide. For the one containing more than one FRET peptide, they were re-suspended so that each peptide was as 2 μM (assuming an equal portion of each one). These were then re-suspended and screened as described above for Round 1. The data does confirm that some amino acids in the Z position are more favorable than others. […] The greater the value of the slope in Table 7 the greater the activity of the amino acid when part of a spacer. The column in Table 7 labeled “Slope” indicates the speed of cleavage of the Linker.

| Substance | % of Max Slope, X [%] |
| --- | --- |
| LRLFVGS (cleavable linker) | 74 |
| ALKLFVGS (cleavable linker) | 100 |
| IFVALKGS (cleavable linker) | 69 |
| LKLFVGS (cleavable linker) | 98 |
| LFVRLRGS (cleavable linker) | 94 |
| LFVALKGS (cleavable linker) | 92 |

Target: T2, pepsin from porcine gastric mucosa (Sus scrofa, UniProt P00791)
T2 construct: from tissue; host or cells: porcine gastric mucosa
Experiment: not given
Format: biochemical
Conditions: not given

T2 sequence (P00791 60-385): as above

| Substance | cleavage of linking peptide in SGF (His-tagged western blot) |
| --- | --- |
| IFVRLRGS (cleavable linker) | digestion and disappearance of the protein band |
| ALKLFVGS (cleavable linker) | digestion and disappearance of the protein band |
| IGER (listed as Pisum sativum) [control peptide that is only cleaved in insects, reference compound] | retention of the intact protein band |

System: gut extract isolated from Southern Corn Rootworm
Experiment: not given
Format: biochemical, Diabrotica undecimpunctata
Conditions: not given

| Substance | cleavage of linking peptide in SCR gut extract (His-tagged western blot) |
| --- | --- |
| IFVRLRGS (cleavable linker) | digestion and disappearance of the protein band |
| ALKLFVGS (cleavable linker) | digestion and disappearance of the protein band |
| IGER (listed as Pisum sativum) [control peptide that is only cleaved in insects, reference compound] | retention of the intact protein band |

System: CEW gut extract
Experiment: not given
Format: biochemical, Helicoverpa zea
Conditions: not given

| Substance | cleavage of linking peptide in CEW gut extract (His-tagged western blot) |
| --- | --- |
| IFVRLRGS (cleavable linker) | digestion and disappearance of the protein band |
| ALKLFVGS (cleavable linker) | digestion and disappearance of the protein band |
| IGER (listed as Pisum sativum) [control peptide that is only cleaved in insects, reference compound] | only cleaves in the CEW gut extract |

System: gut enzymes of Southern Corn Rootworm
Experiment: FRET peptide cleavage by coleopteran gut enzymes (COLEOP)
Conditions: COLEOP (X); pooled FRET screening Round 1; slope of fluorescence over 10 minutes, steepest slope = 100%; representative cleavable sequences

| Substance | % of Max Slope [%] |
| --- | --- |
| KLR | 83 |
| VIR | 70 |
| LQR | 56 |
| VLK | 70 |
| LKQ | 100 |
| IKQ | 100 |
| IKV | 56 |
| QLR | 74 |
| LRT | 68 |
| LNK | 56 |
| NLR | 74 |
| IQR | 56 |
| LKS | 68 |
| ALK | 70 |
| NIR | 74 |
| LQK | 56 |
| RLR | 83 |
| NLK | 74 |
| INR | 56 |
| ALR | 70 |
| QIK | 74 |
| LKT | 68 |
| VIK | 70 |
| IRS | 68 |
| IKN | 100 |

| Substance | % of Max Slope [%] |
| --- | --- |
| LNR | 56 |
| IKS | 68 |
| VLR | 70 |
| AIR | 70 |
| KIK | 83 |
| INK | 56 |
| AIK | 70 |
| NIK | 74 |
| IKA | 56 |
| RIK | 83 |
| IRN | 100 |
| KIR | 83 |
| IRQ | 100 |
| IQK | 56 |
| LRN | 100 |
| LRS | 68 |
| IRT | 68 |
| QLK | 74 |
| KLK | 83 |
| IKT | 68 |
| QIR | 74 |
| RLK | 83 |
| LKN | 100 |
| LRQ | 100 |
| RIR | 83 |

Same assay, conditions: COLEOP (X); pooled FRET screening; failed cleavable sequences

| Substance | % of Max Slope [%] |
| --- | --- |
| IKQ | 0 |
| IKN | 0 |
| IRN | 0 |
| IRQ | 0 |
| LKN | −2 |

Same assay, conditions: insect (COLEOP) simulated gut environment

| Substance | COLEOP cleavage (in words) |
| --- | --- |
| IFVRLR (cleavable linker) | rapid |
| ALKLFV (cleavable linker) | rapid |

Source: US11447531B2, “Cleavable peptides and insecticidal and nematicidal proteins comprising same” (Vestaron Corporation, priority 2016, dated 2022)
